Values quoted from earlier work, collected in PubChem BioAssay AID1259409 (Chemical Carcinogenesis Research Information System (CCRIS), 2018).

System: rodent chemically induced tumor inhibition, incidence and multiplicity
Assay: CCRIS tumor inhibitor studies

NCCCC(N)(C(=O)O)C(F)F (stereo not drawn)
tumour outcome (control, treated, inhibition, significance) (Carcinogen: 1,2-DIMETHYLHYDRAZINE, 540-73-8, Dose [Inhibitor]: 0, 0.2% IN DRINKING WATER BEGINNING 1 D PRIOR TO CARCINOGEN TREATMENT AND CONTINUING FOR DURATION OF STUDY (STUDY DURATI, Route [Inhibitor]: ORAL, Species: RAT, Strain/Sex: SPRAGUE-DAWLEY/MALE, Target Tissue: Type of Lesion: DISTAL COLON: ADENOCARCINOMA, Dose [Carcinogen]: 20 MG/KG 1/WK FOR 20 WK, Promoter: NONE USED): 94%, 67%, 29%, p<0.01
tumour outcome (control, treated, inhibition, significance) (Carcinogen: 7,12-DIMETHYLBENZ[A]ANTHRACENE, 57-97-6, Dose [Inhibitor]: 0.3 MG IN 0.2 ML ACETONE:ETHANOL:WATER (2:1:1, V/V) 1 HR AFTER EACH PROMOTER DOSE FOR 20 WK (STUDY DURATION: 20 WK), Route [Inhibitor]: DERMAL, Species: MOUSE, Strain/Sex: CD-1/FEMALE, Target Tissue: Type of Lesion: SKIN: PAPILLOMA, Dose [Carcinogen]: 0.2 UMOL IN 0.2 ML ACETONE ONCE, Promoter: 12-O-TETRADECANOYLPHORBOL-13-ACETATE, 16561-29-8): 97%, 61%, 37%, not calculated
tumour outcome (control, treated, inhibition, significance) (Carcinogen: 7,12-DIMETHYLBENZ[A]ANTHRACENE, 57-97-6, Dose [Inhibitor]: 0.3 MG IN 0.2 ML ACETONE:ETHANOL:WATER (2:1:1,V/V) 1 HR AFTER EACH PROMOTER DOSE FOR 20 WK (STUDY DURATION: 20 WK), Route [Inhibitor]: DERMAL, Species: MOUSE, Strain/Sex: CD-1/FEMALE, Target Tissue: Type of Lesion: SKIN: PAPILLOMA, Dose [Carcinogen]: 0.2 UMOL IN 0.2 ML ACETONE ONCE, Promoter: 12-O-TETRADECANOYLPHORBOL-13-ACETATE, 16561-29-8): 84%, 63%, 25%, not calculated
tumour outcome (control, treated, inhibition, significance) (Carcinogen: 7,12-DIMETHYLBENZ[A]ANTHRACENE, 57-97-6, Dose [Inhibitor]: 1% (W/V) IN DRINKING WATER 2 D PRIOR TO 1ST PROMOTER DOSE UNTIL THE END OF EXPERIMENT (STUDY DURATION: 20 WK), Route [Inhibitor]: ORAL, Species: MOUSE, Strain/Sex: CD-1/FEMALE, Target Tissue: Type of Lesion: SKIN: PAPILLOMA, Dose [Carcinogen]: 0.2 UMOL IN 0.2 ML ACETONE ONCE, Promoter: 12-O-TETRADECANOYLPHORBOL-13-ACETATE, 16561-29-8): 100%, 43%, 57%, not calculated
tumour outcome (control, treated, inhibition, significance) (Carcinogen: 7,12-DIMETHYLBENZ[A]ANTHRACENE, 57-97-6, Dose [Inhibitor]: 2% IN DRINKING WATER (AVERAGE DAILY INTAKE: 8.53 ML/MOUSE/D) FOR 18 WK (STUDY DURATION: 18 WK), Route [Inhibitor]: ORAL, Species: MOUSE, Strain/Sex: SENCAR/FEMALE, Target Tissue: Type of Lesion: SKIN: PAPILLOMA, Dose [Carcinogen]: 10 NMOL ONCE AT 7 WK OF AGE, Promoter: 12-O-TETRADECANOYLPHORBOL-13-ACETATE, 16561-29-8): 92%, 81%, 12%, not calculated
tumour outcome (control, treated, inhibition, significance) (Carcinogen: 7,12-DIMETHYLBENZ[A]ANTHRACENE, 57-97-6, Dose [Inhibitor]: 3 MG IN 0.2 ML ACETONE:ETHANOL:WATER (2:1:1, V/V) 1 HR AFTER EACH PROMOTER DOSE FOR 20 WK (STUDY DURATION: 20 WK), Route [Inhibitor]: DERMAL, Species: MOUSE, Strain/Sex: CD-1/FEMALE, Target Tissue: Type of Lesion: SKIN: PAPILLOMA, Dose [Carcinogen]: 0.2 UMOL IN 0.2 ML ACETONE ONCE, Promoter: 12-O-TETRADECANOYLPHORBOL-13-ACETATE, 16561-29-8): 68%, 47%, 31%, not calculated
tumour outcome (control, treated, inhibition, significance) (Carcinogen: 7,12-DIMETHYLBENZ[A]ANTHRACENE, 57-97-6, Dose [Inhibitor]: 5 MG, 2 HR PRIOR TO EACH BIWEEKLY PROMOTER DOSE FOR 18 WK (STUDY DURATION: 18 WK), Route [Inhibitor]: INTRAPERITONEAL, Species: MOUSE, Strain/Sex: SENCAR/FEMALE, Target Tissue: Type of Lesion: SKIN: PAPILLOMA, Dose [Carcinogen]: 10 NMOL AT 7 WK OF AGE ONCE 18 WK, Promoter: 12-O-TETRADECANOYLPHORBOL-13-ACETATE, 16561-29-8): 92%, 77%, 16%, not calculated
tumour outcome (control, treated, inhibition, significance) (Carcinogen: 7,12-DIMETHYLBENZ[A]ANTHRACENE, 57-97-6, Dose [Inhibitor]: 6 MG IN 0.9% NACL 1 HR AFTER EACH PROMOTER DOSE (STUDY DURATION: 20 WK), Route [Inhibitor]: INTRAPERITONEAL, Species: MOUSE, Strain/Sex: CD-1/FEMALE, Target Tissue: Type of Lesion: SKIN: PAPILLOMA, Dose [Carcinogen]: 0.2 UMOL IN 0.2 ML ACETONE ONCE, Promoter: 12-O-TETRADECANOYLPHORBOL-13-ACETATE, 16561-29-8): 83%, 63%, 24%, not calculated
tumour outcome (control, treated, inhibition, significance) (Carcinogen: 7,12-DIMETHYLBENZ[A]ANTHRACENE, 57-97-6, Dose [Inhibitor]: 18 MG IN 0.9% NACL 1 HR AFTER EACH PROMOTER DOSE (STUDY DURATION: 20 WK), Route [Inhibitor]: INTRAPERITONEAL, Species: MOUSE, Strain/Sex: CD-1/FEMALE, Target Tissue: Type of Lesion: SKIN: PAPILLOMA, Dose [Carcinogen]: 0.2 UMOL IN 0.2 ML ACETONE ONCE, Promoter: 12-O-TETRADECANOYLPHORBOL-13-ACETATE, 16561-29-8): 83%, 60%, 28%, not calculated
tumour outcome (control, treated, inhibition, significance) (Carcinogen: 7,12-DIMETHYLBENZ[A]ANTHRACENE, 57-97-6, Dose [Inhibitor]: 20 MG 2/WK OR 16 WK TOGETHER WITH EACH MEZEREIN TREATMENT BEGINNING 3 WK POST CARCINOGEN DOSE (STUDY DURATION: 18 WK), Route [Inhibitor]: INTRAPERITONEAL, Species: MOUSE, Strain/Sex: SENCAR/FEMALE, Target Tissue: Type of Lesion: SKIN: PAPILLOMA, Dose [Carcinogen]: 10 NMOL ONCE FOLLOWED ONE WK LATER BY PROMOTER, Promoter: 12-O-TETRADECANOYLPHORBOL-13-ACETATE, 16561-29-8, MEZERIN, 34807-41-5, Promoter: 12-O-TETRADECANOYLPHORBOL-13-ACETATE, 16561-29-8, MEZERIN, 34807-41-5): 78%, 45%, 42%, not calculated
tumour outcome (control, treated, inhibition, significance) (Carcinogen: 7,12-DIMETHYLBENZ[A]ANTHRACENE, 57-97-6, Dose [Inhibitor]: 20 MG 2/WK TOGETHER WITH EACH PROMOTER TREATMENT BEGINNING 1 WK POST CARCINOGEN DOSE (STUDY DURATION: 18 WK), Route [Inhibitor]: INTRAPERITONEAL, Species: MOUSE, Strain/Sex: SENCAR/FEMALE, Target Tissue: Type of Lesion: SKIN: PAPILLOMA, Dose [Carcinogen]: 10 NMOL ONCE, Promoter: 12-O-TETRADECANOYLPHORBOL-13-ACETATE, 16561-29-8, MEZERIN, 34807-41-5, Promoter: 12-O-TETRADECANOYLPHORBOL-13-ACETATE, 16561-29-8, MEZERIN, 34807-41-5): 78%, 78%, 0%, not significant
tumour outcome (control, treated, inhibition, significance) (Carcinogen: 7,12-DIMETHYLBENZ[A]ANTHRACENE, 57-97-6, Dose [Inhibitor]: 20 MG 2 HR PRIOR TO EACH BIWEEKLY PROMOTER DOSE FOR 18 WK (STUDY DURATION: 18 WK), Route [Inhibitor]: INTRAPERITONEAL, Species: MOUSE, Strain/Sex: SENCAR/FEMALE, Target Tissue: Type of Lesion: SKIN: PAPILLOMA, Dose [Carcinogen]: 10 NMOL ONCE AT 7 WK OF AGE, Promoter: 12-O-TETRADECANOYLPHORBOL-13-ACETATE, 16561-29-8): 92%, 84%, 9%, not calculated
tumour outcome (control, treated, inhibition, significance) (Carcinogen: BETA IRRADIATION, Dose [Inhibitor]: 0, 1% IN DRINKING WATER DURING IRRADIATION EXPOSURE (STUDY DURATION: 950 D), Route [Inhibitor]: ORAL, Species: MOUSE, Strain/Sex: ICR/FEMALE, Target Tissue: Type of Lesion: SKIN: TUMOR, Dose [Carcinogen]: 3 GY/MIN 3/WK UNTIL EMERGENCE OF TUMORS, Promoter: NONE USED): 100%, 100%, 0%, not significant
